Data on 15 compounds can be found in patent US11547703B2, “Substituted fused heteroaromatic tricyclic compounds as kinase inhibitors and the use thereof” (IMPACT THERAPEUTICS (SHANGHAI), INC, priority 2017, dated 2023).

One assay addresses ATM enzyme (human) (Homo sapiens, UniProt Q13315). In words: ATM kinase assay (HTRF, phosphorylation of GST-cMyc-p53). The assay is classed as biochemical. The method, then: ATM enzyme (human) was added to the reaction solution containing 30 nM GST-cMyc-p53 and 10 μM Mg/ATP, and then 50 times the concentration of the tested compound (or reference compound AZD0156) dissolved in 100% DMSO was added to the final concentration of 10 μM/1 μM/0.1 μM/0.01 μM. The reaction was initiated by the addition of a Mg/ATP mixture and incubation for 30 minutes at room temperature, the reaction was quenched by the addition of a stop solution containing EDTA. Finally, the detection buffer containing the d2-labeled anti-GST monoclonal antibody and the europium-labeled anti-phospho p53 (Ser15) antibody was added. The plate was then read in time resolved fluorescence mode and the homogeneous time resolved fluorescence (HTRF) signal was determined according to the equation: HTRF=10000×(Em665nm/Em620nm). Each compound sample was repeated in duplicate. The negative control contained all components except the ATM enzyme, and the positive control contained all components. All reactions were quenched by adding EDTA.
The compounds were serially diluted to 10 concentrations with 100% DMSO at the ratio of 1:3 and 1:10 (the last concentration was negative control of DMSO), then added to the ATM buffer and diluted to a final concentration of 10, 3, 1, 0.3, 0.1, 0.03, 0.01, 0.003, 0.001 and 0 μM, respectively. ATM kinase inhibition was detected by using the method described above. The curve equation for calculating IC50 value is as follows: […]
wherein, C is the concentration of compound and D is the slope factor. Table 2 summarizes the IC50 values of compounds inhibiting ATM kinase.

The test system of assay [1] is human colon cancer cell SW620. The experiment in a line: MTT assay, growth of SW620 cells, compounds combined with CPT-11. The assay is classed as cell-based. The following applies: for IC50: 205 nM CPT-11, 5 days, MTT. The procedure: (§1) SW620 cells were digested by trypsinase, centrifuged at 800 rpm for 5 minutes, the supernatant was discarded, resuspended with fresh medium (RPMI 1640 medium+10% FBS) and counted. The cells were seeded into 96-well cell culture plate with appropriate cell density and incubated overnight in a 37° C. 5% CO2 incubator. The stock solutions of the tested compound and the reference compound AZD0156 were serially diluted to 8 concentrations by DMSO at the ratios of 1:3 and 1:10, respectively, and the last concentration was negative control of DMSO (0 μM, the final concentration of DMSO was 1%). 5 μL of each concentration was added to 120 μL of medium (25 times diluted) and mixed by shaking. The overnight cells were taken and the culture medium was removed, 195 μL of fresh medium containing 205 nM CPT-11 was added to each well, and 5 μL of diluted medium containing the corresponding concentration of the tested sample was added respectively, and the culture plate was then placed in the 5% CO2 cell culture incubator at 37° C. for 5 days. After removing the original solution, 100 μL of fresh serum-free DMEM medium containing MTT (0.5 mg/mL) was added to each well, the culture was continued. After 4 hours, the original solution was removed, 100 μL of DMSO was added into each well, the 96-well plates were shaken away from light for 10 minutes and placed in a multi-function reader to read the absorbance at the wavelength of 552/630/690 nm. GraphPad Prism 6.0 was used to analyze the data. The inhibitory activity of compounds on cell proliferation was plotted based on cell viability and compound concentration. The IC50 value was fitted by a sigmoidal dose response curve equation Y=100/(1+10^(Log C−Log IC50)), where C was the concentration of compound.
(In general: Tetrazolium assays rely on reduction of a dye to a coloured formazan, in cell work by metabolically active cells.)

Assay [2] deals with human breast cancer cell MDA-MB-468. The experiment in a line: MTT assay, growth of MDA-MB-468 cells. The assay is classed as cell-based. The following applies: for IC50: single agent, 7 days, MTT. The method, then: as §1, with “MDA-MB-468 cells” for “SW620 cells”, “1:10, respectively:” for “1:10, respectively, and”, “medium (PRMI 1640+5% FBS)” for “medium containing 205 nM CPT-11”, “for 7 days (On the fourth day, the medium containing drugs was removed and fresh medium containing drugs was added for continuous cultivation).” for “for 5 days.”

Where [3] appears, read: 0.5 h, detected concentration 1 μm.
The mark [4] stands for this setting: Homo sapiens, MDA-MB-468, 168 h.

The structures appear in SMILES notation.

ATM enzyme (human), sequence (Q13315 whole entry): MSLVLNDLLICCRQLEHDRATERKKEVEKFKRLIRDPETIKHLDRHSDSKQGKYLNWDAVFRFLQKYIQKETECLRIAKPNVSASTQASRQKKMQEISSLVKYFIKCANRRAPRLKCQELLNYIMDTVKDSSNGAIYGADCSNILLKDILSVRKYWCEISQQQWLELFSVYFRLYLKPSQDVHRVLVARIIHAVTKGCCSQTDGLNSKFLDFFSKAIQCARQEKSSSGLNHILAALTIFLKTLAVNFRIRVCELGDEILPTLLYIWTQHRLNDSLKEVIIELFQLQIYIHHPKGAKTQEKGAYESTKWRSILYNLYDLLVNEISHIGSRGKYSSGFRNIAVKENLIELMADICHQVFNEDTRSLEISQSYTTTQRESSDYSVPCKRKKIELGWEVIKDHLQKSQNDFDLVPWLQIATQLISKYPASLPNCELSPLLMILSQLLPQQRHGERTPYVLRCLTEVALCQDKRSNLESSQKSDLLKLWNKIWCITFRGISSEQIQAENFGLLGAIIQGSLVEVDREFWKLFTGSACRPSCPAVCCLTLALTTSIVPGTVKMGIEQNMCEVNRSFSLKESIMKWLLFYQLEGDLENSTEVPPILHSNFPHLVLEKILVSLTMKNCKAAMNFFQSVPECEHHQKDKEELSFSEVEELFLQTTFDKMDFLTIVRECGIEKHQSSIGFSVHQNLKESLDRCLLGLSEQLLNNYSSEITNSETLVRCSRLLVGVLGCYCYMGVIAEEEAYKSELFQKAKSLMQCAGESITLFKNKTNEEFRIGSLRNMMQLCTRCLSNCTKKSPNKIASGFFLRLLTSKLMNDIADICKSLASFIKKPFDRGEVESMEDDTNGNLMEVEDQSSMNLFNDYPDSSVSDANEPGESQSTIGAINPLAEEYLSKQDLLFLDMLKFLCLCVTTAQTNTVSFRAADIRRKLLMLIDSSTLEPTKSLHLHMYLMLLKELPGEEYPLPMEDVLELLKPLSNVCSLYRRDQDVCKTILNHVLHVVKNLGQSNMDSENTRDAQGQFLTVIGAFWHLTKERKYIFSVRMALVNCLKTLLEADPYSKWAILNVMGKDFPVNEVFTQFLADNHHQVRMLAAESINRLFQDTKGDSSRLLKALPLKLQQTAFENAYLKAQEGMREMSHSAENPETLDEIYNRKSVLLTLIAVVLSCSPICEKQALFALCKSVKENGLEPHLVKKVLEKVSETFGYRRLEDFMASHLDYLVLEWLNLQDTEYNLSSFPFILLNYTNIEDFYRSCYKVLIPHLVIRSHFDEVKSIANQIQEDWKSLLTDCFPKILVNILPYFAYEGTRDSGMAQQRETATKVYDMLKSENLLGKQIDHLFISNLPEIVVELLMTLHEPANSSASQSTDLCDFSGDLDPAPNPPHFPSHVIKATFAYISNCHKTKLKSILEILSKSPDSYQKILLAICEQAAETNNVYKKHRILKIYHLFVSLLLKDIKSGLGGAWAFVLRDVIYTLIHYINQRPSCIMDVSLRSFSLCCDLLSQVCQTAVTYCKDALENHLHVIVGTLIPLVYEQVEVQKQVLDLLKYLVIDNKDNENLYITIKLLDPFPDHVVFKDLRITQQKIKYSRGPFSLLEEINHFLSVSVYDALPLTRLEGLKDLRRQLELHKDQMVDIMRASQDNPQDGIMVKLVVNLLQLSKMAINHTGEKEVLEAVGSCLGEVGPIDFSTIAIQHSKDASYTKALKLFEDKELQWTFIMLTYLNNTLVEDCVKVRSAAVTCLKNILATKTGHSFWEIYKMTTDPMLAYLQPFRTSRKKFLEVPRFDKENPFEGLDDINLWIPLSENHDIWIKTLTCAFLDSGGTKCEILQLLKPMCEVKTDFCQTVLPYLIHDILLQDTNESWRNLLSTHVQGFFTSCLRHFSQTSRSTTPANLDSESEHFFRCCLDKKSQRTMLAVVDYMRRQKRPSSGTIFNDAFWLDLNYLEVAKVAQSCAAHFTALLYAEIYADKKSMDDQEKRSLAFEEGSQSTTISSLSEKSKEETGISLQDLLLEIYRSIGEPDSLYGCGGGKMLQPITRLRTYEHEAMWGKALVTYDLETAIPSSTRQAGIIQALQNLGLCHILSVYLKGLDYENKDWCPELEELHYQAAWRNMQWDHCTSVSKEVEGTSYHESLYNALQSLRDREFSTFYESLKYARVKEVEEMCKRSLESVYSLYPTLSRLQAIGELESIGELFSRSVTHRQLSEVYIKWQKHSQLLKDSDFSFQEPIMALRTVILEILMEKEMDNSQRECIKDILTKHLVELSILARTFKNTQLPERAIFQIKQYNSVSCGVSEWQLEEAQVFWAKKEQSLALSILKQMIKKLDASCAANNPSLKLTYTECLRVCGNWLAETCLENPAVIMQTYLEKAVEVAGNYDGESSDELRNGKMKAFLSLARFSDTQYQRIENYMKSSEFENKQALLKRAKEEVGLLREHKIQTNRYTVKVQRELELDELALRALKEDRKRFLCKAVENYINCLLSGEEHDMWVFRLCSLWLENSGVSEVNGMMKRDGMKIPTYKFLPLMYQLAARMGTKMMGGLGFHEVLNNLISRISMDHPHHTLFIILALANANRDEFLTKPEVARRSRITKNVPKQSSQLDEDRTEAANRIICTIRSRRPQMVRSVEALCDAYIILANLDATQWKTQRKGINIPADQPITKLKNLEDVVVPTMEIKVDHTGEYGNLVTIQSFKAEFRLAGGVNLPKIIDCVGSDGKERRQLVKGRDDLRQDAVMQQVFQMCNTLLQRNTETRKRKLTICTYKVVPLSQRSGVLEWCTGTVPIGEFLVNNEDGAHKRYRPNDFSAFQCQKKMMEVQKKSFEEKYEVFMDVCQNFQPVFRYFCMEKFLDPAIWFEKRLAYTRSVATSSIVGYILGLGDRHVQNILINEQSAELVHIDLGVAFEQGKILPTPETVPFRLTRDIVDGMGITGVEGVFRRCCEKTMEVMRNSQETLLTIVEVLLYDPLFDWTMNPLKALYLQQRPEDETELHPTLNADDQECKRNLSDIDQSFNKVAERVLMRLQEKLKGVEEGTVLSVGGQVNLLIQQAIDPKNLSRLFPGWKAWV

A word on the inhibition: it is the relative decrease from the control value, in per cent. Higher therefore signals strong suppression. For orientation: IC50 means the concentration needed to halve the response being measured. `CN(C)C1CCN(c2ccc(-c3ccc4nc5cccc(N6CCOCC6)c5n4c3)cn2)CC1` [Example 42, N,N-dimethyl-1-(5-(9-morpholinobenzo[4,5]imidazo[1,2-a]pyridin-2-yl)pyridin-2-yl)piperidin-4-amine] had an inhibition at 1 µM at ATM enzyme (human) (setting [3]) of 88%. For the same compound, the IC50 stood at 2100 nM in assay [1] (Homo sapiens, SW-620, 120 h) and 2400 nM in assay [2] (setting [4]).
`CN(C)CCCOc1ccc(-c2ccc3nc4cccc(CN5CCOCC5)c4n3c2)cn1` [Example 10, N,N-dimethyl-3-((5-(9-(morpholinomethyl)benzo[4,5]imidazo[1,2-a]pyridin-2-yl)pyridin-2-yl)oxy)propan-1-amine] registered an inhibition at 1 µM against ATM enzyme (human) (setting [3]) of 77%. Besides, the IC50 in assay [1] (Homo sapiens, SW-620, 120 h) is over 10000 nM; in assay [2] (setting [4]), over 10000 nM.
Compound `CN(C)CCCOc1ccc(-c2ccc3nc4cccc(-n5ccnc5)c4n3c2)cn1` [Example 9, N,N-dimethyl-3-((5-(9-(1H-imidazol-1-yl)benzo[4,5]imidazo[1,2-a]pyridin-2-yl)pyridin-2-yl)oxy) propan-1-amine] returned an inhibition at 1 µM on ATM enzyme (human) (setting [3]) of 60%. The IC50 worked out at 9310 nM in assay [1] (Homo sapiens, SW-620, 120 h) and 3660 nM in assay [2] (setting [4]).
At ATM enzyme (human) (setting [3]), `CN(C)C1CCN(c2ccc(-c3ccc4nc5cccc(N6CCC(N(C)C)CC6)c5n4c3)cc2)CC1` [Example 56, N,N-dimethyl-1-(4-(9-(4-(dimethylamino)piperidin-1-yl)benzo[4,5]imidazo[1,2-a]pyridin-2-yl)phenyl)piperidin-4-amine] registered an inhibition at 1 µM of 81%. Besides, the IC50 in assay [1] (Homo sapiens, SW-620, 120 h) came to 40.9 nM; in assay [2] (setting [4]), 41.4 nM. The “growth of SW620 cell (in words)” value in assay [1] (MTT assay) is listed as “inhibited the growth”. Besides, in assay [2] (MTT assay), the “growth of MDA-MB-468 cell (in words)” value is recorded as “inhibited the growth”.
The compound `CN(C)CCCOc1ccc(-c2ccc3nc4cccc(N5CCN(C)CC5)c4n3c2)cc1C(F)(F)F` [Example 44, N,N-dimethyl-3-(2-(trifluoromethyl)-4-(9-(4-methylpiperazin-1-yl)benzo[4,5]imidazo[1,2-a]pyridin-2-yl)phenoxy)propan-1-amine] gave an inhibition at 1 µM at ATM enzyme (human) (setting [3]) of 97%. The IC50 in assay [1] (Homo sapiens, SW-620, 120 h) is over 500 nM; in assay [2] (setting [4]), over 100000 nM.
`CN(C)CCCOc1ccc(-c2ccc3nc4cccc(C5=CCOCC5)c4n3c2)cn1` [Example 1, N,N-dimethyl-3-((5-(9-(3,6-dihydro-2H-pyran-4-yl)benzo[4,5]imidazo[1,2-a]pyridin-2-yl)pyridin-2-yl)oxy)propan-1-amine]: the IC50 at ATM enzyme (human) (10 concentrations, 10 to 0.001 μM, read-out: IC50 (nM), in vitro inhibitory effect on ATM kinase) was determined as 239 nM; in assay [1] (Homo sapiens, SW-620, 120 h) it was 1340 nM; in assay [2] (setting [4]), 2800 nM. Further, the inhibition at 10 µM against ATM enzyme (human) (0.5 h, detected concentration 10 μm) is 100%. For the same compound, the “effect on ATM kinase (in words)” value at ATM enzyme (human) (ATM kinase (human) assay) is reported as “good effect”.
The compound `CN1CCN(c2ccc(-c3cccc4nc5ccc(N6CCOCC6)cc5n34)cn2)CC1` [Example 16, 1-(6-(4-methylpiperazin-1-yl)pyridin-3-yl)-8-morpholinobenzo[4,5]imidazo[1,2-a]pyridine] displayed an inhibition at 1 µM on ATM enzyme (human) (setting [3]) of 53%. The IC50 in assay [1] (Homo sapiens, SW-620, 120 h) was over 10000 nM; in assay [2] (setting [4]), over 10000 nM.
Regarding `C[C@@H]1CN(c2ccc(-c3cccc4nc5ccc(N6CCOCC6)cc5n34)cn2)C[C@H](C)N1C` [Example 17, 1-(6-((3S,5R)-3,4,5-trimethylpiperazin-1-yl)pyridin-3-yl)-8-morpholinobenzo[4,5]imidazo[1,2-a]pyridine], 1 µM produced 37% inhibition on ATM enzyme (human) (setting [3]). For the same compound, the IC50 in assay [1] (Homo sapiens, SW-620, 120 h) is 3250 nM; in assay [2] (setting [4]), 2620 nM.
In the same order, the values of `C[C@@H]1CN(c2cccc3nc4ccc(-c5ccc(OCCCN(C)C)nc5)cn4c23)C[C@H](C)N1C` [Example 8, N,N-dimethyl-3-((5-(9-((3S,5R)-3,4,5-trimethylpiperazin-1-yl)benzo[4,5]imidazo[1,2-a]pyridin-2-yl)pyridin-2-yl)oxy)propan-1-amine] are 99%, 434 nM and 25.1 nM.
For the compound `CN(C)CCCOc1ccc(-c2ccc3nc4cccc(OC5CCN(C)CC5)c4n3c2)cn1` [Example 12, N,N-dimethyl-3-((5-(9-((1-methylpiperidin-4-yl)oxy)benzo[4,5]imidazo[1,2-a]pyridin-2-yl)pyridin-2-yl)oxy)propan-1-amine], testing at 1 µM at ATM enzyme (human) (setting [3]) gave an inhibition of 88%. The IC50 is 528 nM in assay [1] (Homo sapiens, SW-620, 120 h) and 703 nM in assay [2] (setting [4]).
`C[C@@H]1CN(c2cccc3nc4ccc(-c5ccc(N6CCC(N(C)C)CC6)c(F)c5)cn4c23)C[C@H](C)N1C` [Example 46, N,N-dimethyl-1-(2-fluoro-4-(9-((3S,5R)-3,4,5-trimethylpiperazin-1-yl)benzo[4,5]imidazo[1,2-a]pyridin-2-yl)phenyl)piperidin-4-amine] came in with an inhibition at 1 µM on ATM enzyme (human) (setting [3]) of 100%. Further, the IC50 turned out to be 152 nM in assay [1] (Homo sapiens, SW-620, 120 h) and 55 nM in assay [2] (setting [4]).
In the same order, the values of `C[C@@H]1CN(c2cccc3nc4ccc(-c5ccc(N6CCC(N(C)C)CC6)c(Cl)c5)cn4c23)C[C@H](C)N1C` [Example 47, N,N-dimethyl-1-(2-chloro-4-(9-((3S,5R)-3,4,5-trimethylpiperazin-1-yl)benzo[4,5]imidazo[1,2-a]pyridin-2-yl)phenyl)piperidin-4-amine] are 100%, 166 nM and 60.5 nM.
The compound `CN1CCN(c2cccc3nc4ccc(-c5ccc(N6CCC(N(C)C)CC6)c(C(F)(F)F)c5)cn4c23)CC1` [Example 43, N,N-dimethyl-1-(2-(trifluoromethyl)-4-(9-(4-methylpiperazin-1-yl)benzo[4,5]imidazo[1,2-a]pyridin-2-yl)-phenyl)piperidin-4-amine] had an inhibition at 1 µM against ATM enzyme (human) (setting [3]) of 99%. Besides, the IC50 in assay [1] (Homo sapiens, SW-620, 120 h) was determined as 1050 nM; in assay [2] (setting [4]) it was 542 nM.
In the same order, the values of `C[C@@H]1CN(c2cccc3nc4ccc(-c5ccc(N6CCC(N(C)C)CC6)c(C(F)(F)F)c5)cn4c23)C[C@H](C)N1C` [Example 48, N,N-dimethyl-1-(2-(trifluoromethyl)-4-(9-((3S,5R)-3,4,5-trimethylpiperazin-1-yl)benzo[4,5]imidazo[1,2-a]pyridin-2-yl)phenyl)piperidin-4-amine] are 100%, over 1000 nM and over 1000 nM.
For the compound `CN(C)CCCOc1ccc(-c2ccc3ncc4c(c3c2)n(C2CCOCC2)c(=O)n4C)cn1` [AZD0156, reference compound], the “inhibition(%) of ATM kinase” value on ATM enzyme (human) (detected concentration 1 μm) is on record as 100%. Besides, the IC50 amounted to 8.5 nM in assay [1] and 10.6 nM in assay [2].
